PMC3532034 (The Journal of neuroscience : the official journal of the …, 2012)

Biological target: LRRK2 (leucine-rich repeat kinase 2) (Homo sapiens, UniProt Q5S007)
Assay: in vitro radiometric kinase assay with recombinant purified LRRK2
Format: biochemical

Sequence of LRRK2 (leucine-rich repeat kinase 2) (Q5S007 970-2527 limits assumed): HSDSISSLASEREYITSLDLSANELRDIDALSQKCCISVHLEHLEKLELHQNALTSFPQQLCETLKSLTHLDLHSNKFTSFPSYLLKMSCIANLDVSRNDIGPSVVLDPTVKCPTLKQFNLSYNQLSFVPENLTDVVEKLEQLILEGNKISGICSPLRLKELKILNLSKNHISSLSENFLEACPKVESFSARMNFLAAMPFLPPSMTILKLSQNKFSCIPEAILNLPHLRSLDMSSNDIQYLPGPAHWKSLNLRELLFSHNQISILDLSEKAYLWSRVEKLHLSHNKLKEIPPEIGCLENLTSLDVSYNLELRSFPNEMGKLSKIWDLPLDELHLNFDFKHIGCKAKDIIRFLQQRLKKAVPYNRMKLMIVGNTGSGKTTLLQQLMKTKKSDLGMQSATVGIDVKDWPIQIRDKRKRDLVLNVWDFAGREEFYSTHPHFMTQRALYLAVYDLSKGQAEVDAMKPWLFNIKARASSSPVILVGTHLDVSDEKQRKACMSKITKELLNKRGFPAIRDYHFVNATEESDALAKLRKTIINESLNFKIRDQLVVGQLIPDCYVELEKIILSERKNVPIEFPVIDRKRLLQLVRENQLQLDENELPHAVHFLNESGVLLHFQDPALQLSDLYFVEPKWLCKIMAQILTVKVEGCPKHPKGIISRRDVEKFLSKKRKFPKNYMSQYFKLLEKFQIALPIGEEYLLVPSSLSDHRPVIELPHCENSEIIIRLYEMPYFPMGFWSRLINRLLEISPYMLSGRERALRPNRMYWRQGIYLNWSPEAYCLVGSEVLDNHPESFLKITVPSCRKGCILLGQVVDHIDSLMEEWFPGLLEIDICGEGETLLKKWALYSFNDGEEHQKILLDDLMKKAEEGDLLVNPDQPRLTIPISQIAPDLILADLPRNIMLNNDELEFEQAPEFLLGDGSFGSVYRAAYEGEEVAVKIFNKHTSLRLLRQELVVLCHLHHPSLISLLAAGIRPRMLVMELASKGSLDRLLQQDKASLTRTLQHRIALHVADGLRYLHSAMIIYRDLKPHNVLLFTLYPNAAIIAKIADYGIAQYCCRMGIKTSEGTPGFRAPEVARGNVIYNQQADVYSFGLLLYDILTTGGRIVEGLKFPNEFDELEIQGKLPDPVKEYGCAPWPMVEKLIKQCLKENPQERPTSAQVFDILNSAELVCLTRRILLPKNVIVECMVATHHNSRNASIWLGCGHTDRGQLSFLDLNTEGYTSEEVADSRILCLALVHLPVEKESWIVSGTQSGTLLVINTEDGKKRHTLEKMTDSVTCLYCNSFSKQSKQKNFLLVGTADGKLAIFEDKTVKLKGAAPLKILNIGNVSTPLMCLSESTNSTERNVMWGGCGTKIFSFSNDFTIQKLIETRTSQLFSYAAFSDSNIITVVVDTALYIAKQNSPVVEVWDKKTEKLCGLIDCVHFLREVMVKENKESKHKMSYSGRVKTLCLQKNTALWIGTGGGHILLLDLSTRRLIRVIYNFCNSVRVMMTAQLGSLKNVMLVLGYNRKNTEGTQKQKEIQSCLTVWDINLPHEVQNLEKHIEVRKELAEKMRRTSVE

COc1cc(C(=O)N2CCC(N3CCN(C)CC3)CC2)ccc1Nc1ncc2c(n1)N(C)c1ccccc1C(=O)N2C [L2in1]
IC50: 40.3 nM
